Assay [1] relates to E-tag antibody. The experiment in a line: ELISA analysis of phage on antibody raised against ETAG (positive control). The following applies: peptide binding to E-tag antibody; phage ELISA units read at 405 nm. The method, then:
(§1) For analysis of individual target binders, colonies were picked and phage prepared as described above using helper phage, M13KO7. Ninety-six-well microtiter plates were coated with 500 ng/well of specific target protein, 500 ng/well lactate dehydrogenase (LDH) irrelevant or non-specific target, 500 ng/well of positive control antibody raised against ETAG, and negative control of non-fat milk powder-PBS 2% at 4° C. overnight. Plates were then blocked with 350 microliters/well PBS containing 2% non-fat milk for 1 hr at room temperature. One hundred microliters per well of phage from isolated clones were added and plates were incubated at room temperature for 2 hr after centrifuging samples for 20 minutes at 3500 rpm at 4° C. The phage solution was then removed, and the wells were washed three times with PBS at room temperature. Antibody raised against M13 conjugated to horseradish peroxidase (Pharmacia) was diluted 1:3000 in PBS-Tween and added to each well (100 μl/well). Incubation was for 1 hr at room temperature, followed by washing with PBS-(0.5%) Tween 3 times as described. Color was developed by addition of ABTS solution (100 μl/well; Boehringer, Indianapolis, Ind.). Plates were analyzed at 405 nm. A clone was considered “positive” if the A405 of the well was ≧2-fold over background.
Background: ELISA stands for enzyme-linked immunosorbent assay.

For assay [2], the target named is T1, DGI-2 (Homo sapiens, UniProt Q15004).
T1 construct: encompassed the entire DGI-2 open reading frame (ORF); His-tag of vector pIVEX2.3-MCS (inferred from the vector and from the reverse primer lacking a stop codon); made in house; host or cells: cell-free in vitro translation (Rapid Translation System RTS, Roche; E. coli lysate)
T1 sequence (Q15004 1-111): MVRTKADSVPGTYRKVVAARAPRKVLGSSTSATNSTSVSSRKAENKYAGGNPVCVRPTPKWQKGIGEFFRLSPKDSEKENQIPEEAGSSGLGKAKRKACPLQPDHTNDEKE
The assay is described as follows: ELISA analysis of phage on DGI-2 polypeptide (specific binding). The note with it: for DGI-2 (OD): binding to DGI-2 polypeptide (specific binding), phage ELISA units read at 405 nm; for DGI-2/LDH (OD): ratio of specific binding to non-specific binding. As for the experimental part: To verify that the selected target binders bound to DGI-2, Elisa assays were performed with recombinant DGI-2. DGI-2 was subcloned and expressed using conventional methods as described below.
Protein yields were satisfactory, but most of protein was found in inclusion bodies. Next, DGI-2 was expressed using an in vitro translation system (Rapid Translation System RTS 5000, Roche Diagnostics GmbH, Mannheim Germany). For this system, the DGI-2 ORF was cloned into the pIVEX2.3-MCS vector (Roche Diagnostics) using restriction sites Nde I and Hind III, which were added to DGI-2 by PCR. […] The primers used for the PCR amplification were as follows: […]
as §1

For assay [3], the system named is lactate dehydrogenase (LDH). The assay is described as follows: ELISA analysis of phage on LDH (irrelevant, non-specific target). It counts as binding. The note with it: peptide binding to LDH polypeptide (non-specific binding); phage ELISA units read at 405 nm. The method, then: as §1

As for “HPWVTNMLVFQRPPPPGFWLSDTTPRQRNGLGQVERPSVD (DGI-2-40F-3-C7; listed as Escherichia coli)”, the “ETAG (OD)” value in assay [1] came to 8.8 OD. Further, in assay [2], the “DGI-2 (OD)” value is listed as 1.2 OD and the “DGI-2/LDH (OD)” value is recorded as 1.5. The “LDH (OD)” value in assay [3] stood at 0.8 OD.
The corresponding values for “HSGNRQSGSRRTHLLNIFCSSDTFVFPGWSAYLSRVCPGD (DGI-2-40F-3-B122; listed as Escherichia coli)” are 11.0 OD, 1.7 OD, 2.2 and 0.8 OD.
Regarding “ISGQVWSSWRFPGWGGKLF (ISGQVWSSWRFPGWGGKF; DGI-2-20R-3-D10; listed as Escherichia coli)”, the “ETAG (OD)” value in assay [1] was determined as 19.6 OD. In assay [2], the “DGI-2 (OD)” value amounted to 4.7 OD and the “DGI-2/LDH (OD)” value was found to be 4.5. In assay [3], the “LDH (OD)” value was determined as 1.1 OD.
On to “KVWGCGARRGWERLGHLNQV (DGI-2-20F-PP-B10; listed as Escherichia coli)”, for which the “ETAG (OD)” value in assay [1] is reported as 27.1 OD. For the same substance, in assay [2], the “DGI-2 (OD)” value is listed as 1.9 OD and the “DGI-2/LDH (OD)” value is on record as 2.4. For the same substance, the “LDH (OD)” value in assay [3] came to 0.8 OD.
Taken in the same sequence, the figures for “LAPMFLQNQVRTWAASRRPLPAGPSNARCETGSLSPWVPC (DGI-2-40F-3-B11; listed as Escherichia coli)” were 7.9 OD, 1.8 OD, 2.0 and 0.9 OD.
Take “LFRFSGTGMASLPCVGWHLV (DGI-2-20F-PP-B6; listed as Escherichia coli)”: the “ETAG (OD)” value in assay [1] stood at 37.0 OD. Also, in assay [2], the “DGI-2 (OD)” value came to 2.5 OD and the “DGI-2/LDH (OD)” value was determined as 2.6. The “LDH (OD)” value in assay [3] came out at 1.0 OD.
The corresponding values for “LFSATGCALMSGFCLGSDGS (DGI-2-20R-3-C1; listed as Escherichia coli)” are 14.0 OD, 8.2 OD, 8.3 and 1.0 OD.
The corresponding values for “LGNASSLWFLRSVQESGVR (LGNASSLIPFLRSVQESGVR; DGI-2-20F-3-C5; listed as Escherichia coli)” are 17.7 OD, 1.0 OD, 1.0 and 0.9 OD.
On to “LGPAHPHGRVCRVSSS#S (LGPAHPHGRVCRVSSSS; DGI-2-20F-PP-B9; listed as Escherichia coli)”, for which the “ETAG (OD)” value in assay [1] worked out at 5.0 OD. For the same substance, in assay [2], the “DGI-2 (OD)” value came out at 1.9 OD and the “DGI-2/LDH (OD)” value turned out to be 2.7. In assay [3], the “LDH (OD)” value turned out to be 0.7 OD.
The corresponding values for “LGRIVRPCVVRLCGGV##GV (LGRIVRPCVVRLCGGVGV; DGI-2-20F-PP-G10; listed as Escherichia coli)” are 30.1 OD, 2.5 OD, 2.0 and 1.2 OD.
The corresponding values for “LGRTFVWGTCLHLSVSRFGH (DGI-2-20F-PP-C3; listed as Escherichia coli)” are 39.9 OD, 5.3 OD, 5.1 and 1.0 OD.
The corresponding values for “LHFGSVMGWRPPGSLWSRPFGQVHPRSWSGS (DGI-2-40F-3-D11; listed as Escherichia coli)” are 10.5 OD, 3.8 OD, 2.9 and 1.3 OD.
On to “LHRLGQSMGGTLDHLQGWGV (DGI-2-20R-4-E5; listed as Escherichia coli)”, for which the “ETAG (OD)” value in assay [1] was 17.9 OD. Further, in assay [2], the “DGI-2 (OD)” value was determined as 1.2 OD and the “DGI-2/LDH (OD)” value was found to be 1.1. The “LDH (OD)” value in assay [3] is 1.1 OD.
Regarding “LLLPVRWRDAQPRSLLMEWI (DGI-2-20F-PP-F8; listed as Escherichia coli)”, in assay [1], the “ETAG (OD)” value amounted to 7.6 OD. Moreover, in assay [2], the “DGI-2 (OD)” value was 2.0 OD and the “DGI-2/LDH (OD)” value was found to be 1.9. In addition, the “LDH (OD)” value in assay [3] was determined as 1.1 OD.
Taken in the same sequence, the figures for “LPQSRWLSEAWASWVDGVVD (DGI-2-20F-4-F9; listed as Escherichia coli)” were 19.6 OD, 5.6 OD, 5.9 and 1.0 OD.
Taken in the same sequence, the figures for “LQIVRPAGMTKMPGQVGYYIG (LQIVRPAGWKMPGQVGYYIG; DGI-2-20R-3-A9; listed as Escherichia coli)” were 14.3 OD, 3.4 OD, 3.4 and 1.0 OD.
Taken in the same sequence, the figures for “LSHPMSPLRAASQMALTQGV (DGI-2-20R-4-H7; listed as Escherichia coli)” were 14.1 OD, 3.1 OD, 2.6 and 1.2 OD.
As to “LSLEGGWMWDTKGGDGGSAQ (DGI-2-20R-4-F93; listed as Escherichia coli)”, the “ETAG (OD)” value in assay [1] is on record as 19.5 OD. Also, in assay [2], the “DGI-2 (OD)” value came out at 9.0 OD and the “DGI-2/LDH (OD)” value is 8.4. Further, the “LDH (OD)” value in assay [3] was found to be 1.1 OD.
For the substance “LSLLSVVVRSMGASAPQRQV (DGI-2-20F-3-A7; listed as Escherichia coli)”, the “ETAG (OD)” value in assay [1] is 7.0 OD. Moreover, in assay [2], the “DGI-2 (OD)” value is on record as 2.1 OD and the “DGI-2/LDH (OD)” value amounted to 2.4. In addition, the “LDH (OD)” value in assay [3] stood at 0.9 OD.
The corresponding values for “LSRIWRGVIESAREVESRGI (DGI-2-20F-3-B1; listed as Escherichia coli)” are 11.4 OD, 1.2 OD, 1.2 and 0.9 OD.
The corresponding values for “LSVFRPGQFPHVGARGVSRT (DGI-2-20R-4-G32; listed as Escherichia coli)” are 11.0 OD, 1.4 OD, 1.2 and 1.1 OD.
Taken in the same sequence, the figures for “LTPYSLARSWLSGRPSTGAT (DGI-2-20F-3-C12; listed as Escherichia coli)” were 15.1 OD, 3.2 OD, 3.1 and 1.0 OD.
Consider “LTWGPQFGSLQVYSRHRGLP (DGI-2-20R-4-E4; listed as Escherichia coli)”, for which, in assay [1], the “ETAG (OD)” value came out at 18.1 OD. Also, in assay [2], the “DGI-2 (OD)” value worked out at 1.6 OD and the “DGI-2/LDH (OD)” value is on record as 1.3. Besides, in assay [3], the “LDH (OD)” value turned out to be 1.2 OD.
Taken in the same sequence, the figures for “LVIGQRSFLSACSLFDGFCV (DGI-2-20R-4-H814; listed as Escherichia coli)” were 13.5 OD, 9.5 OD, 9.0 and 1.1 OD.
The corresponding values for “LVIQCSASVVACDLYWNYVGCLAAG (DGI-2-20C-3-D12; listed as Escherichia coli)” are 3.6 OD, 1.1 OD, 1.1 and 1.0 OD.
The corresponding values for “LWLPCGLLVRPAQFYFYFSPLRHFLSSSVGSLSFPLSLLV (DGI-2-40F-3-B4; listed as Escherichia coli)” are 1.5 OD, 1.0 OD, 1.1 and 0.8 OD.
“LWRRWSEGQLLGDGELRGDG (DGI-2-20R-3-B52; listed as Escherichia coli)”: the “ETAG (OD)” value in assay [1] worked out at 15.8 OD. Further, in assay [2], the “DGI-2 (OD)” value turned out to be 8.7 OD and the “DGI-2/LDH (OD)” value came out at 8.4. Also, the “LDH (OD)” value in assay [3] turned out to be 1.0 OD.
For “MAVLPAARDFGGVVQGGVSG (DGI-2-20F-3-C2; listed as Escherichia coli)”, the “ETAG (OD)” value in assay [1] is reported as 11.5 OD. For the same substance, in assay [2], the “DGI-2 (OD)” value is recorded as 1.3 OD and the “DGI-2/LDH (OD)” value amounted to 1.3. In addition, the “LDH (OD)” value in assay [3] stood at 1.0 OD.
The corresponding values for “MFQDVACDLWHSVRCLRRDV (DGI-2-20R-3-B3; listed as Escherichia coli)” are 16.1 OD, 4.9 OD, 4.8 and 1.0 OD.

(Values after US7056679B2, “Target specific screening and its use for identifying target binders” (Antyra, Inc., priority 2001, dated 2006).)
